Experimental data as given in US12012396B2, “HDAC inhibitor solid state forms” (Viracta Subsidiary, Inc., priority 2020, dated 2024).
“Also recorded” adds a separate entry of the source.

Tests used:
Format in all cases: physicochemical
[1] = Thermodynamic aqueous solubility; settings: water, after 24 hours equilibration
Method: Aqueous solubility was determined by suspending sufficient compound in 0.5 ml deionized water to give a maximum final concentration of 40 mg/mi of the parent free-form of the compound. The suspension was equilibrated at 25° C., on a Heidolph plate shaker set to 750 rpm for 24 hours. After equilibration, the appearance was noted and the pH of the saturated solution was measured. Samples forming suspensions were centrifuged for 4 min at 13,500 rpm. Samples were then filtered through a glass fiber C filter (particle retention 1.2 μm), before dilution with H2O as appropriate.
Quantitation was by HPLC (see Table 2 for parameters) with reference to a standard solution of approximately 0.15 mg/ml in DMSO. Different volumes of the standard, diluted and undiluted sample solutions were injected. The solubility was calculated using the peak areas determined by integration of the peak found at the same retention time as the principal peak in the standard injection. Analysis was performed on an AgilentHPl 100/Infinity II 1260 series system equipped with a diode array detector and using OpenLAB software.

[2] = Static storage stability at elevated temperature/humidity (XRPD, HPLC purity)
Method: XRPD diffractograms were collected on a Bruker D8 diffractometer using Cu Kα, radiation (40 kV, 40 mA) and a 0-20 goniometer fitted with a Ge monochromator. The incident beam passes through a 2.0 mm divergence slit followed by a 0.2 mm anti-scatter slit and knife edge. The diffracted beam passes through an 8.0 mm receiving slit with 2.5° Soller slits followed by the Lynxeye Detector. The software used for data collection and analysis was Diffrac Plus XRD Commander and Diffrac Plus EVA respectively.
XRPD diffractograms were collected on a PANalytical Empyrean diffractometer using Cu Kα, radiation (45 kV, 40 mA) in transmission geometry. A 0.5° slit, 4 mm mask and 0.04 rad Soller slits with a focusing mirror were used on the incident beam. A PIXcel3D detector, placed on the diffracted beam, was fitted with a receiving slit and 0.04 rad Soller slits. The software used for data collection was X'Pert Data Collector using X'Pert Operator Interface. The data were analyzed and presented using Diffrac Plus EVA or HighScore Plus.
Purity analysis was performed on an AgilentHP1100/Infinity 111260 series system equipped with a diode array detector and using OpenLAB software.

[3] = Gravimetric Vapour Sorption (GVS)
Method: Sorption isotherms were obtained using a SMS DVS Intrinsic moisture sorption analyser, controlled by DVS Intrinsic Control software. The sample temperature was maintained at 25° C. by the instrument controls. The humidity was controlled by mixing streams of dry and wet nitrogen, with a total flow rate of 200 ml/min. The relative humidity was measured by a calibrated Rotronic probe (dynamic range of 1.0-100% RH), located near the sample. The weight change, (mass relaxation) of the sample as a function of % RH was constantly monitored by a microbalance (accuracy ±0.005 mg). Typically, 20-30 mg of sample was placed in a tared mesh stainless steel basket under ambient conditions. The sample was loaded and unloaded at 40% RH and 25° C. (typical room conditions). A moisture sorption isotherm was performed as outlined below (2 scans per complete cycle). The standard isotherm was performed at 25° C. at 10% RH intervals over a 0-90% RH range. Typically, a double cycle (4 scans) was carried out. Data analysis was carried out within Microsoft Excel using the DVS Analysis Suite. [table]

[4] = physchem; settings: thermodynamic from solid
From the text: There was insufficient residue to characterize these further.

[5] = Competitive slurries of anhydrous and hydrated forms in different water activity
Method: Competitive slurries of the anhydrous and hydrated forms in different water activity at 50° C. and 5° C. were used to determine the thermodynamic stability relationships.

[6] = 7 days / 1 week at 25° C./97% RH
[7] = 7 days / 1 week at 40° C./75% RH

pH of saturated solution [1]: (pH = 3.2)
Purity after static storage ([2]; 14 weeks at 25° C./97% RH): 93.5%
Solid form by XRPD after static storage ([2]; 14 weeks at 25° C./97% RH): Mesylate Form 1
Purity after static storage ([2]; 14 weeks at 40° C./75% RH): Form 2 (94.7% purity)
HPLC purity after static storage [2, 6]: no significant drop in purity
HPLC purity after static storage [2, 7]: no significant drop in purity
Hygroscopicity by GVS ([3]; 25° C.): RH: Slightly hygroscopic.
solubility thermodynamic ([4]; fassgf or other biorelevant, Thermodynamic solubility in FaSSGF): 21000 µg/mL
solubility thermodynamic ([4]; fassif, Thermodynamic solubility in FaSSIF): 1900 µg/mL
solubility thermodynamic ([4]; fessif, Thermodynamic solubility in FeSSIF): 340 µg/mL
Water activity up to which the form was the most stable ([5]; competitive slurries at 5° C.): ≥ 0.3 aw
Water activity up to which the form was the most stable ([5]; competitive slurries at 50° C.): 0.6 aw
SMILES: O=C(NO)c1cnc(N2C[C@@H]3[C@H](C2)[C@H]3NCc2ccc3cc(F)ccc3n2)nc1 [Mesylate Form 1, N-hydroxy 2-{6-[(6-fluoro-quinolin-2-ylmethyl)-amino]-3-aza-bicyclo[3.1.0]hex-3-yl}pyrimidine-5-carboxamide]
Solid form by XRPD after static storage [2, 6]: unchanged; also recorded: No change, Mesylate Form 1
Solid form by XRPD after static storage [2, 7]: unchanged; also recorded: No change, Mesylate Form 1
XRPD post-GVS ([3]; residue after GVS): no change; also recorded: XRPD remains unchanged
